In PubChem BioAssay AID489003 (NMMLSC, 2010):
Activity calls are given as the source filed them.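 Rule for the calls: active = compounds whose weighted score, built from EC50 under 10 micromolar and fitted span over a set limit, tops 52; inactive = the rest.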

The compounds below were run against Broad substrate specificity ATP-binding cassette transporter ABCG2 (Homo sapiens) (UniProt Q9UNQ0) (assay: ABCG2 efflux pump inhibitors, dose response, Ig-MXP3 cells, JC-1 substrate, flow cytometry (AID 489003)). Conditions: JC-1 efflux.
Chain of Broad substrate specificity ATP-binding cassette transporter ABCG2 (Homo sapiens) (Q9UNQ0 whole entry, looked up): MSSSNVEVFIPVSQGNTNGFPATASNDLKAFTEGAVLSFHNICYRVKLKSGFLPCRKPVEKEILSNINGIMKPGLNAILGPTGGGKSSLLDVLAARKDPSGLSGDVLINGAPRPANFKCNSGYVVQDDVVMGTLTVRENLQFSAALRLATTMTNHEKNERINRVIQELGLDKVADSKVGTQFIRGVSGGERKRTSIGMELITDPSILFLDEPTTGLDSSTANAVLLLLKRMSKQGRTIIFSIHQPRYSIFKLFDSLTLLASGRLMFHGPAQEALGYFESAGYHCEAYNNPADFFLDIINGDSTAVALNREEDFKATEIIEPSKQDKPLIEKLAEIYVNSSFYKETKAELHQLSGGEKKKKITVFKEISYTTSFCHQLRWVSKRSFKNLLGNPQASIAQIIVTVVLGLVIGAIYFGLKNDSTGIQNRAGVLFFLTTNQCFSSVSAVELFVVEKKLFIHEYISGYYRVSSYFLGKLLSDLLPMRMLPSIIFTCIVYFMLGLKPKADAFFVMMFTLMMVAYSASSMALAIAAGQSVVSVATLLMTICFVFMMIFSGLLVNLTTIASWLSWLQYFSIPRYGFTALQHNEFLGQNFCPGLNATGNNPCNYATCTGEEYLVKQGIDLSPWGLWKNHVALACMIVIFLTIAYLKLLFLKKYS
Compound `O=C(c1ccoc1)N1CCN(c2cc(-c3ccco3)nc3cc(-c4ccco4)nn23)CC1` has an EC50 of 697 nM.
`O=C(c1ccoc1)N1CCN(c2cc(-c3ccoc3)nc3cc(-c4ccccc4)nn23)CC1` was tested, and the EC50 was 1590 nM.
With `CC(=O)N1CCN(c2cc(C)nc3cc(-c4cccc(F)c4)nn23)CC1` the EC50 was “inactive”.
With `Cc1occc1C(=O)N1CCN(c2cc(-c3ccco3)nc3cc(-c4ccccc4)nn23)CC1` the EC50 was 1690 nM.
`O=C(c1ccoc1)N1CCN(c2cc(-c3ccco3)nc3cc(-c4cccs4)nn23)CC1` was tested, and the EC50 was 2480 nM.
`Cc1nc2cc(-c3ccc(Br)cc3)nn2c(N2CCN(C(=O)c3ccoc3)CC2)c1C` showed an EC50 of 10100 nM.
Work on `O=C(c1ccoc1)N1CCN(c2cc(-c3ccco3)nc3cc(-c4ccccc4)nn23)CC1` yielded an EC50 of 460 nM.
In the case of `COc1cc(OC)cc(-c2cc3nc(C)c(C)c(N4CCN(C(=O)c5ccoc5)CC4)n3n2)c1`, the EC50 is reported as 664 nM.
In the case of `CC1CN(C(=O)OC(C)(C)C)CCN1c1cc(-c2ccco2)nc2cc(-c3ccccc3)nn12` (centres undefined), the EC50 is reported as 3440 nM.
`O=C(c1ccoc1)N1CCN(c2cc(-c3cccc(F)c3)nc3cc(-c4cccc(Cl)c4)nn23)CC1` showed an EC50 of 2300 nM.
`COc1cccc(-c2cc(N3CCN(C(=O)c4ccoc4)CC3)n3nc(-c4cccc(OC)c4)cc3n2)c1` showed an EC50 of 540 nM.
Work on `COc1ccccc1-c1cc(N2CCN(C(=O)c3ccoc3)CC2)n2nc(-c3ccccc3)cc2n1` yielded an EC50 of 1870 nM.
`Cc1nc2cc(-c3ccc(F)cc3)nn2c(N2CCN(C(=O)c3ccco3)CC2)c1C` was tested, and the EC50 was 7640 nM.
`O=C(c1ccoc1)N1CCN(c2cc(-c3cccc(F)c3)nc3cc(-c4ccccc4)nn23)CC1` was tested, and the EC50 was 2110 nM.
`O=C(c1ccoc1)N1CCN(c2cc(-c3ccco3)nc3cc(-c4cccc(Cl)c4)nn23)CC1` showed an EC50 of 2960 nM.
For `CN(CCN(C)c1cc(-c2ccco2)nc2cc(-c3ccccc3)nn12)C(=O)c1ccoc1`, the EC50 was “inactive”.
For `O=C(c1ccoc1)N1CCN(c2cc(-c3ccco3)nc3cc(-c4ccc(Cl)cc4)nn23)CC1`, the EC50 was 2720 nM.
With `Cc1nc2cc(-c3ccc4c(c3)OCO4)nn2c(N2CCN(C(=O)c3ccoc3)CC2)c1C` the EC50 was 613 nM.
Work on `COc1ccc(-c2cc3nc(C)c(C)c(N4CCN(C(C)=O)CC4)n3n2)cc1` yielded an EC50 of 6390 nM.
In the case of `CC(C)(C)c1cc(N2CCN(C(=O)c3ccoc3)CC2)n2nc(-c3ccccc3)cc2n1`, the EC50 is reported as “inactive”.
In the case of `O=C(c1ccco1)N1CCN(c2cc(-c3ccccc3)nc3ncnn23)CC1`, the EC50 is reported as 3550 nM.
Work on `O=C(Nc1ccccc1)C1CCN(c2cc(-c3ccco3)nc3cc(-c4ccccc4)nn23)CC1` yielded an EC50 of 6490 nM.
`COc1cccc(-c2cc(N3CCN(C(=O)c4ccoc4)CC3)n3nc(-c4ccccc4)cc3n2)c1` showed an EC50 of 3330 nM.
Work on `COc1ccc(-c2cc3nc(-c4ccco4)cc(N4CCN(C(=O)c5ccoc5)CC4)n3n2)cc1` yielded an EC50 of 1800 nM.
`CNCCN(C)c1cc(-c2ccco2)nc2cc(-c3ccccc3)nn12` was tested, and the EC50 was “inactive”.
Compound `COc1cccc(-c2cc3nc(C)c(C(C)C)c(N4CCN(C(=O)c5ccoc5)CC4)n3n2)c1` has an EC50 of 6020 nM.
`O=C(c1ccccc1)N1CCN(c2cc(-c3ccco3)nc3cc(-c4ccccc4)nn23)CC1` gave an EC50 of 1510 nM.
Work on `COc1ccc(-c2cc3nc(-c4ccccc4)cc(N4CCN(C(=O)c5ccoc5)CC4)n3n2)cc1` yielded an EC50 of 1620 nM.
With `COc1cccc(-c2cc3nc(C)c(C)c(N4CCN(C(=O)c5ccco5)CC4)n3n2)c1` the EC50 was 7100 nM.
With `Cc1cc(N2CCN(C(=O)c3ccoc3)CC2)n2nc(-c3ccccc3)cc2n1` the EC50 was 7190 nM.
Compound `Cc1cccc(-c2cc3nc(-c4ccco4)cc(N4CCN(C(=O)c5ccoc5)CC4)n3n2)c1` has an EC50 of 9090 nM.
`COc1ccc(-c2[nH]nc3nc(N4CCN(C(=O)c5ccoc5)CC4)cc(C(F)(F)F)c23)cc1` showed an EC50 of 8440 nM.
In the case of `O=C(c1ccoc1)N1CCCN(c2cc(-c3ccco3)nc3cc(-c4ccccc4)nn23)C1`, the EC50 is reported as 1220 nM.
Work on `COc1cccc(-c2cc3nc(-c4cccc(C#N)c4)cc(N4CCN(C(=O)c5ccoc5)CC4)n3n2)c1` yielded an EC50 of 2530 nM.
In the case of `CC(=O)N1CCN(c2cc(-c3ccco3)nc3cc(-c4cccc(Cl)c4)nn23)CC1`, the EC50 is reported as 626 nM.
With `COc1cccc(-c2cc3nc(-c4ccco4)cc(N4CCN(C(C)=O)CC4)n3n2)c1` the EC50 was 892 nM.
With `CC(=O)N1CCN(c2cc(-c3ccccc3)nc3cc(-c4ccccc4)nn23)CC1` the EC50 was 2360 nM.
For `Cc1coc(C)c1C(=O)N1CCN(c2cc(-c3ccco3)nc3cc(-c4ccccc4)nn23)CC1`, the EC50 was 3220 nM.
`Cc1cc(C(=O)N2CCN(c3cc(-c4ccco4)nc4cc(-c5ccccc5)nn34)CC2)c(C)o1` showed an EC50 of 3810 nM.
In the case of `O=C(c1coc2ccccc12)N1CCN(c2cc(-c3ccco3)nc3cc(-c4ccccc4)nn23)CC1`, the EC50 is reported as 1460 nM.
Compound `Cc1nn2c(N3CCN(C(=O)c4ccco4)CC3)cc(C(C)(C)C)nc2c1-c1ccc(Cl)cc1` has an EC50 of 1920 nM.
With `CC1CN(C(=O)c2ccoc2)CCN1c1cc(-c2ccco2)nc2cc(-c3ccccc3)nn12` (centres undefined) the EC50 was 2920 nM.
With `COc1ccc(-c2cc3nc(C)c(C)c(N4CCN(C(=O)c5ccco5)CC4)n3n2)cc1` the EC50 was 2680 nM.
Compound `COc1cccc(-c2cc3nc(-c4ccccc4)c(C)c(N4CCN(C(=O)c5ccoc5)CC4)n3n2)c1` has an EC50 of 1670 nM.
For `Cc1nc2cc(-c3ccccc3)nn2c(N2CCN(C(=O)c3ccoc3)CC2)c1C`, the EC50 was 2000 nM.
In the case of `c1ccc(-c2cc3nc(-c4ccco4)cc(N4CCNCC4)n3n2)cc1`, the EC50 is reported as 6980 nM.
With `COc1cccc(-c2cc3nc(C)cc(N4CCN(C(=O)c5ccoc5)CC4)n3n2)c1` the EC50 was 4570 nM.
With `O=C(c1ccoc1)N1CCN(c2cc(-c3ccccc3)nc3cc(-c4ccncc4)nn23)CC1` the EC50 was 1030 nM.
`O=C(c1ccoc1)N1CCN(c2cc(-c3cccs3)nc3cc(-c4ccccc4)nn23)CC1` was tested, and the EC50 was 1660 nM.
With `O=C(c1ccoc1)N1CCN(c2cc(-c3ccc(F)cc3)nc3cc(-c4ccccc4)nn23)CC1` the EC50 was 12100 nM.
For `c1ccc(CN2CCN(c3cc(-c4ccco4)nc4cc(-c5ccccc5)nn34)CC2)cc1`, the EC50 was 1680 nM.
Compound `O=C(c1ccco1)N1CCN(c2c3c(nc4cc(-c5ccc(F)cc5)nn24)CCC3)CC1` has an EC50 of 701 nM.
`O=C(OCc1ccccc1)N1CCN(c2cc(-c3ccco3)nc3cc(-c4ccccc4)nn23)CC1` gave an EC50 of 2730 nM.
With `Cc1nc2cc(-c3cccc(Cl)c3)nn2c(N2CCN(C(=O)c3ccoc3)CC2)c1C` the EC50 was 9310 nM.
In the case of `O=C(c1ccoc1)N1CCN(c2cc(-c3ccco3)nc3cc(-c4cccc(-c5ccco5)c4)nn23)CC1`, the EC50 is reported as 503 nM.
`CC(=O)N1CCN(c2cc(-c3ccco3)nc3cc(-c4ccccc4)nn23)CC1` was tested, and the EC50 was “inactive”.
For `Cc1ccc(-c2nc3nc(C)cc(N4CCN(C(=O)c5ccco5)CC4)n3n2)cc1`, the EC50 was 4170 nM.
For `COc1cccc(-c2cc3nc(-c4cccc(C(F)(F)F)c4)cc(N4CCN(C(=O)c5ccoc5)CC4)n3n2)c1`, the EC50 was 788 nM.
Work on `COC(=O)c1cccc(-c2cc(N3CCN(C(=O)c4ccoc4)CC3)n3nc(-c4cccc(OC)c4)cc3n2)c1` yielded an EC50 of 1680 nM.
For `CNCCCN(C)c1cc(-c2ccco2)nc2cc(-c3ccccc3)nn12`, the EC50 was “inactive”.
With `CC(=O)N1CCN(c2c(C)c(C)nc3cc(-c4ccc(F)cc4)nn23)CC1` the EC50 was “inactive”.
`Cc1nc2cc(-c3cccc(F)c3)nn2c(N2CCN(C(=O)c3ccco3)CC2)c1C` was tested, and the EC50 was 1430 nM.
Work on `COc1cccc(-c2cc3nc(-c4ccccc4)cc(N4CCN(C(=O)c5ccoc5)CC4)n3n2)c1` yielded an EC50 of 1920 nM.
`Cc1ccc(-c2cc3nc(-c4ccco4)cc(N4CCN(Cc5ccoc5)CC4)n3n2)cc1` gave an EC50 of 1820 nM.
For `Cc1cc(N2CCN(C(=O)c3ccco3)CC2)n2nc(-c3ccccc3)nc2n1`, the EC50 was 9430 nM.
With `CN(C)c1cc(-c2ccco2)nc2cc(-c3ccccc3)nn12` the EC50 was 8870 nM.
In the case of `O=C(C1CCCO1)N1CCN(c2c3c(nc4cc(-c5cccc(F)c5)nn24)CCCC3)CC1` (centres undefined), the EC50 is reported as “inactive”.
In the case of `Cc1ccc(-c2cc(N3CCN(C(=O)c4ccoc4)CC3)n3nc(-c4ccccc4)cc3n2)o1`, the EC50 is reported as 1450 nM.
Work on `Cc1cc(N2CCN(C(=O)c3ccco3)CC2)n2ncc(-c3ccccc3)c2n1` yielded an EC50 of 7520 nM.
Work on `CN(CCCN(C)c1cc(-c2ccco2)nc2cc(-c3ccccc3)nn12)C(=O)c1ccoc1` yielded an EC50 of 2720 nM.
With `COc1cccc(-c2cc3nc(C)c(C)c(N4CCN(Cc5ccco5)CC4)n3n2)c1` the EC50 was 393 nM.
With `COc1ccccc1-c1cc2nc(-c3ccco3)cc(N3CCN(C(=O)c4ccoc4)CC3)n2n1` the EC50 was 4270 nM.
`CCc1c(C)nc2cc(-c3cccc(OC)c3)nn2c1N1CCN(C(=O)c2ccoc2)CC1` gave an EC50 of 1450 nM.
`COc1cccc(-c2cc3nc(C)c(C)c(N4CCN(C(=O)c5ccoc5)CC4)n3n2)c1` gave an EC50 of 3830 nM.
`Cc1c(-c2ccco2)nc2cc(-c3ccccc3)nn2c1N1CCN(C(=O)c2ccoc2)CC1` gave an EC50 of 2440 nM.
With `O=C(c1ccco1)N1CCN(c2cc(-c3ccco3)nc3cc(-c4ccccc4)nn23)CC1` the EC50 was 852 nM.
`O=C(c1ccoc1)N1CCN(c2cc(-c3ccccc3F)nc3cc(-c4ccccc4)nn23)CC1` was tested, and the EC50 was 3620 nM.
`COc1ccc(-c2cc(N3CCN(C(=O)c4ccoc4)CC3)n3nc(-c4ccccc4)cc3n2)cc1` showed an EC50 of 3640 nM.
`O=C1CN(c2cc(-c3ccco3)nc3cc(-c4ccccc4)nn23)CCN1c1ccccc1` gave an EC50 of 1360 nM.
In the case of `Cc1ccc(-c2cc3nc(-c4ccco4)cc(N4CCN(C(=O)c5ccoc5)CC4)n3n2)cc1`, the EC50 is reported as 8180 nM.
With `O=C(c1ccsc1)N1CCN(c2cc(-c3ccco3)nc3cc(-c4ccccc4)nn23)CC1` the EC50 was 2870 nM.
`COc1cccc(-c2cc3nc(-c4ccco4)cc(N4CCN(C(=O)c5ccoc5)CC4)n3n2)c1` gave an EC50 of 1860 nM.
In the case of `COc1ccc(-c2cc3nc(C)c(C)c(N4CCN(C(=O)c5ccoc5)CC4)n3n2)cc1`, the EC50 is reported as 1200 nM.

Same assay, conditions: JC-1 efflux, at 50 µM (top of the series)
With `COc1ccccc1-c1c(C)nn2c(N3CCN(C(=O)c4ccco4)CC3)cc(C)nc12` the inhibition was “inactive”.
